The supplement of paper PMC10307832

Tests used:
Experiment in all cases: relative viability (nuclei count vs DMSO), 5 days (fraction); higher = more cells survive
Calu-6 = test system: Calu-6
Procedure, shortened: (§1)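 Five library-drug doses in √10 steps were combined with a fixed anchor-drug dose, or a single drug was given alone, by pin tool to lung cancer cell lines in 1536-well plates the day after seeding. Nuclei were stained and counted after 5 days. Relative viability is the nuclei count in treated wells over that in vehicle wells, taken as the median of duplicate plates.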

NCI-H1703 = test system: NCI-H1703
Procedure, shortened: as §1

NCI-H2228 = test system: NCI-H2228
Procedure, shortened: as §1

EMC-BAC-2 = test system: EMC-BAC-2
Procedure, shortened: as §1

NCI-H2009 = test system: NCI-H2009
Procedure, shortened: as §1

EBC-1 = test system: EBC-1
Procedure, shortened: as §1

NCI-H1299 = test system: NCI-H1299
Procedure, shortened: as §1

ABC-1 = test system: ABC-1
Procedure, shortened: as §1

IA-LM = test system: IA-LM
Procedure, shortened: as §1

A549 = test system: A549
Procedure, shortened: as §1

SMILES: Cc1csc(=NC2CCCCC2)n1/N=C/c1ccc(O)c(O)c1O [MIM1] + C[C@@H](Oc1cc(-c2cnn(C3CCNCC3)c2)cnc1N)c1c(Cl)ccc(F)c1Cl [Crizotinib] (partner 1 µM)
- relative viability (Calu-6; first compound 0.2 µM): 0.785
- relative viability (Calu-6; first compound 0.6325 µM): 0.826
- relative viability (Calu-6; first compound 2 µM): 0.696
- relative viability (Calu-6; first compound 6.325 µM): 0.36
- relative viability (Calu-6; first compound 20 µM): 0.186
- relative viability (NCI-H1703; first compound 0.2 µM): 0.534
- relative viability (NCI-H1703; first compound 0.6325 µM): 0.482
- relative viability (NCI-H1703; first compound 2 µM): 0.455
- relative viability (NCI-H1703; first compound 6.325 µM): 0.175
- relative viability (NCI-H1703; first compound 20 µM): 0.127
- relative viability (NCI-H2228; first compound 0.2 µM): 0.453
- relative viability (NCI-H2228; first compound 0.6325 µM): 0.488
- relative viability (NCI-H2228; first compound 2 µM): 0.61
- relative viability (NCI-H2228; first compound 6.325 µM): 0.241
- relative viability (NCI-H2228; first compound 20 µM): 0.22
- relative viability (EMC-BAC-2; first compound 0.2 µM): 0.708
- relative viability (EMC-BAC-2; first compound 0.6325 µM): 0.774
- relative viability (EMC-BAC-2; first compound 2 µM): 0.784
- relative viability (EMC-BAC-2; first compound 6.325 µM): 0.628
- relative viability (EMC-BAC-2; first compound 20 µM): 0.196
- relative viability (NCI-H2009; first compound 0.2 µM): 0.964
- relative viability (NCI-H2009; first compound 0.6325 µM): 1.1
- relative viability (NCI-H2009; first compound 2 µM): 1.1
- relative viability (NCI-H2009; first compound 6.325 µM): 1.02
- relative viability (NCI-H2009; first compound 20 µM): 0.732
- relative viability (EBC-1; first compound 0.2 µM): 0.207
- relative viability (EBC-1; first compound 0.6325 µM): 0.196
- relative viability (EBC-1; first compound 2 µM): 0.195
- relative viability (EBC-1; first compound 6.325 µM): 0.196
- relative viability (EBC-1; first compound 20 µM): 0.227
- relative viability (NCI-H1299; first compound 0.2 µM): 0.857
- relative viability (NCI-H1299; first compound 0.6325 µM): 0.975
- relative viability (NCI-H1299; first compound 2 µM): 0.975
- relative viability (NCI-H1299; first compound 6.325 µM): 0.966
- relative viability (NCI-H1299; first compound 20 µM): 0.904
- relative viability (ABC-1; first compound 0.2 µM): 1.08
- relative viability (ABC-1; first compound 0.6325 µM): 1.22
- relative viability (ABC-1; first compound 2 µM): 0.846
- relative viability (ABC-1; first compound 6.325 µM): 0.286
- relative viability (ABC-1; first compound 20 µM): 0.226
- relative viability (IA-LM; first compound 0.2 µM): 0.697
- relative viability (IA-LM; first compound 0.6325 µM): 0.789
- relative viability (IA-LM; first compound 2 µM): 0.773
- relative viability (IA-LM; first compound 6.325 µM): 0.443
- relative viability (IA-LM; first compound 20 µM): 0.204
- relative viability (A549; first compound 0.2 µM): 0.709
- relative viability (A549; first compound 0.6325 µM): 0.715
- relative viability (A549; first compound 2 µM): 0.762
- relative viability (A549; first compound 6.325 µM): 0.402
- relative viability (A549; first compound 20 µM): 0.227

SMILES: Cc1csc(=NC2CCCCC2)n1/N=C/c1ccc(O)c(O)c1O [MIM1] + C[C@]1(O)C[C@@H](c2nc(-c3ccc4ccc(-c5ccccc5)nc4c3)c3c(N)nccn32)C1 [Linsitinib] (partner 1 µM)
- relative viability (Calu-6; first compound 0.6325 µM): 0.918
- relative viability (Calu-6; first compound 2 µM): 0.897
- relative viability (Calu-6; first compound 6.325 µM): 0.561
- relative viability (Calu-6; first compound 20 µM): 0.286
- relative viability (NCI-H1703; first compound 0.2 µM): 0.759
- relative viability (NCI-H1703; first compound 0.6325 µM): 1.31
- relative viability (NCI-H1703; first compound 2 µM): 0.701
- relative viability (NCI-H1703; first compound 6.325 µM): 0.144
- relative viability (NCI-H1703; first compound 20 µM): 0.095
- relative viability (NCI-H2228; first compound 0.2 µM): 0.752
- relative viability (NCI-H2228; first compound 0.6325 µM): 0.638
- relative viability (NCI-H2228; first compound 2 µM): 0.877
- relative viability (NCI-H2228; first compound 6.325 µM): 0.217
- relative viability (NCI-H2228; first compound 20 µM): 0.208
- relative viability (EMC-BAC-2; first compound 0.2 µM): 0.776
- relative viability (EMC-BAC-2; first compound 0.6325 µM): 0.822
- relative viability (EMC-BAC-2; first compound 2 µM): 0.784
- relative viability (EMC-BAC-2; first compound 6.325 µM): 0.757
- relative viability (EMC-BAC-2; first compound 20 µM): 0.328
- relative viability (NCI-H2009; first compound 0.2 µM): 1.25
- relative viability (NCI-H2009; first compound 0.6325 µM): 1.18
- relative viability (NCI-H2009; first compound 2 µM): 1.18
- relative viability (NCI-H2009; first compound 6.325 µM): 1.06
- relative viability (NCI-H2009; first compound 20 µM): 1.05
- relative viability (EBC-1; first compound 0.2 µM): 0.921
- relative viability (EBC-1; first compound 0.6325 µM): 0.829
- relative viability (EBC-1; first compound 2 µM): 0.871
- relative viability (EBC-1; first compound 6.325 µM): 0.605
- relative viability (EBC-1; first compound 20 µM): 0.318
- relative viability (NCI-H1299; first compound 0.2 µM): 0.98
- relative viability (NCI-H1299; first compound 0.6325 µM): 0.93
- relative viability (NCI-H1299; first compound 2 µM): 0.963
- relative viability (NCI-H1299; first compound 6.325 µM): 0.919
- relative viability (NCI-H1299; first compound 20 µM): 0.667
- relative viability (ABC-1; first compound 0.2 µM): 0.769
- relative viability (ABC-1; first compound 0.6325 µM): 1.14
- relative viability (ABC-1; first compound 2 µM): 0.651
- relative viability (ABC-1; first compound 6.325 µM): 0.388
- relative viability (ABC-1; first compound 20 µM): 0.24
- relative viability (IA-LM; first compound 0.2 µM): 0.563
- relative viability (IA-LM; first compound 0.6325 µM): 0.36
- relative viability (IA-LM; first compound 2 µM): 0.502
- relative viability (IA-LM; first compound 6.325 µM): 0.0829
- relative viability (IA-LM; first compound 20 µM): 0.105
- relative viability (A549; first compound 0.2 µM): 0.564
- relative viability (A549; first compound 0.6325 µM): 0.638
- relative viability (A549; first compound 2 µM): 0.618
- relative viability (A549; first compound 6.325 µM): 0.504
- relative viability (A549; first compound 20 µM): 0.515

SMILES: Cc1csc(=NC2CCCCC2)n1/N=C/c1ccc(O)c(O)c1O [MIM1] + Cc1nc(NC(=O)N2CCC[C@H]2C(N)=O)sc1-c1ccnc(C(C)(C)C(F)(F)F)c1 [Alpelisib] (partner 2 µM)
- relative viability (Calu-6; first compound 0.2 µM): 0.971
- relative viability (Calu-6; first compound 0.6325 µM): 1.02
- relative viability (Calu-6; first compound 2 µM): 0.813
- relative viability (Calu-6; first compound 6.325 µM): 0.339
- relative viability (Calu-6; first compound 20 µM): 0.208
- relative viability (NCI-H1703; first compound 0.2 µM): 0.329
- relative viability (NCI-H1703; first compound 0.6325 µM): 0.34
- relative viability (NCI-H1703; first compound 2 µM): 0.352
- relative viability (NCI-H1703; first compound 6.325 µM): 0.171
- relative viability (NCI-H1703; first compound 20 µM): 0.123
- relative viability (NCI-H2228; first compound 0.2 µM): 0.76
- relative viability (NCI-H2228; first compound 0.6325 µM): 1.09
- relative viability (NCI-H2228; first compound 2 µM): 0.666
- relative viability (NCI-H2228; first compound 6.325 µM): 0.335
- relative viability (NCI-H2228; first compound 20 µM): 0.197
- relative viability (EMC-BAC-2; first compound 0.2 µM): 0.718
- relative viability (EMC-BAC-2; first compound 0.6325 µM): 0.771
- relative viability (EMC-BAC-2; first compound 2 µM): 0.745
- relative viability (EMC-BAC-2; first compound 6.325 µM): 0.682
- relative viability (EMC-BAC-2; first compound 20 µM): 0.404
- relative viability (NCI-H2009; first compound 0.2 µM): 1.14
- relative viability (NCI-H2009; first compound 0.6325 µM): 1.21
- relative viability (NCI-H2009; first compound 2 µM): 1.23
- relative viability (NCI-H2009; first compound 6.325 µM): 1.04
- relative viability (NCI-H2009; first compound 20 µM): 0.987
- relative viability (EBC-1; first compound 0.2 µM): 0.801
- relative viability (EBC-1; first compound 0.6325 µM): 0.862
- relative viability (EBC-1; first compound 2 µM): 0.785
- relative viability (EBC-1; first compound 6.325 µM): 0.531
- relative viability (EBC-1; first compound 20 µM): 0.296
- relative viability (NCI-H1299; first compound 0.2 µM): 1.01
- relative viability (NCI-H1299; first compound 0.6325 µM): 1.05
- relative viability (NCI-H1299; first compound 2 µM): 1.06
- relative viability (NCI-H1299; first compound 6.325 µM): 1.01
- relative viability (NCI-H1299; first compound 20 µM): 0.87
- relative viability (ABC-1; first compound 0.2 µM): 1.02
- relative viability (ABC-1; first compound 0.6325 µM): 1.05
- relative viability (ABC-1; first compound 2 µM): 0.913
- relative viability (ABC-1; first compound 6.325 µM): 0.816
- relative viability (ABC-1; first compound 20 µM): 0.322
- relative viability (IA-LM; first compound 0.2 µM): 0.829
- relative viability (IA-LM; first compound 0.6325 µM): 0.805
- relative viability (IA-LM; first compound 2 µM): 0.644
- relative viability (IA-LM; first compound 6.325 µM): 0.266
- relative viability (IA-LM; first compound 20 µM): 0.148
- relative viability (A549; first compound 0.2 µM): 0.69
- relative viability (A549; first compound 0.6325 µM): 0.879
- relative viability (A549; first compound 2 µM): 0.79
- relative viability (A549; first compound 6.325 µM): 0.56
- relative viability (A549; first compound 20 µM): 0.102
